Source: US20230111310A1, “CARBOXYLIC ACID DERIVATIVE-SUBSTITUTED IMINO ARYL COMPOUND, PREPARATION METHOD THEREFOR, HERBICIDAL COMPOSITION AND USE THEREOF” (Qingdao Kingagroot Chemical Compound Co., Ltd., priority 2020, published 2023)

What was measured:
Experiment in all cases: Weeding effect in post-emergence stage
Assay type in all cases: in vivo
Abutilon theophrasti = conditions: for Weeding effect in post-emergence stage, Abutilon theophrasti (level): fresh weight control rate level; for Weeding effect in post-emergence stage, Abutilon theophrasti: level of fresh weight growth control rate
Summary of the method: (§1)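 Doses of 500, 250, 125, 60, 30, 15 and 7.5 g/ha, with methyl oleate synergist (1.5 liter/ha) and Tween 80 from acetone solution, applied by spray tower post-emergence (2–3 leaf stage). Weed control scored after 3 further greenhouse weeks, averaged over triplicates.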

Alopecurus japonicus = conditions: for Weeding effect in post-emergence stage, Alopecurus japonicus (level): fresh weight control rate level; for Weeding effect in post-emergence stage, Alopecurus japonicus: level of fresh weight growth control rate
Summary of the method: as §1

Digitaria sanguinalis = conditions: for Weeding effect in post-emergence stage, Digitaria sanguinalis (level): fresh weight control rate level; for Weeding effect in post-emergence stage, Digitaria sanguinalis: level of fresh weight growth control rate
Summary of the method: as §1

Eleusine indica = conditions: for Weeding effect in post-emergence stage, Eleusine indica (level): fresh weight control rate level; for Weeding effect in post-emergence stage, Eleusine indica: level of fresh weight growth control rate
Summary of the method: as §1

Setaria viridis = conditions: for Weeding effect in post-emergence stage, Setaria viridis (level): fresh weight control rate level; for Weeding effect in post-emergence stage, Setaria viridis: level of fresh weight growth control rate
Summary of the method: as §1

Echinochloa crusgalli = conditions: for Weeding effect in post-emergence stage, Echinochloa crusgalli (level): fresh weight control rate level; for Weeding effect in post-emergence stage, Echinochloa crusgalli: level of fresh weight growth control rate
Summary of the method: as §1

C[C@@H](O/N=C/c1cc(-n2c(=O)cc(C(F)(F)F)n(C)c2=O)c(F)cc1Cl)C(=O)OCCN(C)C [448(R)]
Weeding effect in post-emergence stage, Abutilon theophrasti (level) (Abutilon theophrasti; Dose 15 g/ha): 5 (Level 5: growth control rate is above 85%) | Weeding effect in post-emergence stage, Alopecurus japonicus (level) (Alopecurus japonicus; Dose 15 g/ha): 5 (Level 5: growth control rate is above 85%) | Weeding effect in post-emergence stage, Digitaria sanguinalis (level) (Digitaria sanguinalis; Dose 15 g/ha): 5 (Level 5: growth control rate is above 85%) | Weeding effect in post-emergence stage, Eleusine indica (level) (Eleusine indica; Dose 15 g/ha): 5 (Level 5: growth control rate is above 85%) | Weeding effect in post-emergence stage, Setaria viridis (level) (Setaria viridis; Dose 15 g/ha): 5 (Level 5: growth control rate is above 85%) | Weeding effect in post-emergence stage, Echinochloa crusgalli (level) (Echinochloa crusgalli; Dose 15 g/ha): 5 (Level 5: growth control rate is above 85%)

C=CCOC(=O)C(C)O/N=C/c1cc(-n2c(=O)cc(C(F)(F)F)n(C)c2=O)c(F)cc1Cl (racemic) [Compound 208]
Weeding effect in post-emergence stage, Abutilon theophrasti (Abutilon theophrasti; Dose 15 g/ha): 5 (Level 5: growth control rate is above 85%) | Weeding effect in post-emergence stage, Alopecurus japonicus (Alopecurus japonicus; Dose 15 g/ha): 5 (Level 5: growth control rate is above 85%) | Weeding effect in post-emergence stage, Digitaria sanguinalis (Digitaria sanguinalis; Dose 15 g/ha): 5 (Level 5: growth control rate is above 85%) | Weeding effect in post-emergence stage, Eleusine indica (Eleusine indica; Dose 15 g/ha): 5 (Level 5: growth control rate is above 85%) | Weeding effect in post-emergence stage, Setaria viridis (Setaria viridis; Dose 15 g/ha): 5 (Level 5: growth control rate is above 85%) | Weeding effect in post-emergence stage, Echinochloa crusgalli (Echinochloa crusgalli; Dose 15 g/ha): 5 (Level 5: growth control rate is above 85%)

COC(=O)CCCO/N=C/c1cc(-n2c(=O)cc(C(F)(F)F)n(C)c2=O)c(F)cc1Cl [Compound 485]
Weeding effect in post-emergence stage, Abutilon theophrasti (level) (Abutilon theophrasti; Dose 15 g/ha): 5 (Level 5: growth control rate is above 85%) | Weeding effect in post-emergence stage, Alopecurus japonicus (level) (Alopecurus japonicus; Dose 15 g/ha): 5 (Level 5: growth control rate is above 85%) | Weeding effect in post-emergence stage, Digitaria sanguinalis (level) (Digitaria sanguinalis; Dose 15 g/ha): 5 (Level 5: growth control rate is above 85%) | Weeding effect in post-emergence stage, Eleusine indica (level) (Eleusine indica; Dose 15 g/ha): 5 (Level 5: growth control rate is above 85%) | Weeding effect in post-emergence stage, Setaria viridis (level) (Setaria viridis; Dose 15 g/ha): 5 (Level 5: growth control rate is above 85%) | Weeding effect in post-emergence stage, Echinochloa crusgalli (level) (Echinochloa crusgalli; Dose 15 g/ha): 5 (Level 5: growth control rate is above 85%)

CC(O/N=C/c1cc(-n2c(=O)cc(C(F)(F)F)n(C)c2=O)c(F)cc1Cl)C(=O)OCc1ccccc1 (stereo not drawn) [Compound 283]
Weeding effect in post-emergence stage, Abutilon theophrasti (Abutilon theophrasti; Dose 15 g/ha): 5 (Level 5: growth control rate is above 85%) | Weeding effect in post-emergence stage, Alopecurus japonicus (Alopecurus japonicus; Dose 15 g/ha): 5 (Level 5: growth control rate is above 85%) | Weeding effect in post-emergence stage, Digitaria sanguinalis (Digitaria sanguinalis; Dose 15 g/ha): 5 (Level 5: growth control rate is above 85%) | Weeding effect in post-emergence stage, Eleusine indica (Eleusine indica; Dose 15 g/ha): 5 (Level 5: growth control rate is above 85%) | Weeding effect in post-emergence stage, Setaria viridis (Setaria viridis; Dose 15 g/ha): 5 (Level 5: growth control rate is above 85%) | Weeding effect in post-emergence stage, Echinochloa crusgalli (Echinochloa crusgalli; Dose 15 g/ha): 5 (Level 5: growth control rate is above 85%)

CC(O/N=C/c1cc(-n2c(=O)cc(C(F)(F)F)n(C)c2=O)c(F)cc1Cl)C(=O)N1CCOCC1 (stereo not drawn) [Compound 454]
Weeding effect in post-emergence stage, Abutilon theophrasti (level) (Abutilon theophrasti; Dose 60 g/ha): 5 (Level 5: growth control rate is above 85%) | Weeding effect in post-emergence stage, Alopecurus japonicus (level) (Alopecurus japonicus; Dose 60 g/ha): 5 (Level 5: growth control rate is above 85%) | Weeding effect in post-emergence stage, Digitaria sanguinalis (level) (Digitaria sanguinalis; Dose 60 g/ha): 5 (Level 5: growth control rate is above 85%) | Weeding effect in post-emergence stage, Eleusine indica (level) (Eleusine indica; Dose 60 g/ha): 5 (Level 5: growth control rate is above 85%) | Weeding effect in post-emergence stage, Setaria viridis (level) (Setaria viridis; Dose 60 g/ha): 5 (Level 5: growth control rate is above 85%) | Weeding effect in post-emergence stage, Echinochloa crusgalli (level) (Echinochloa crusgalli; Dose 60 g/ha): 5 (Level 5: growth control rate is above 85%)

COC(=O)[C@H](OC)O/N=C/c1cc(-n2c(=O)cc(C(F)(F)F)n(C)c2=O)c(F)cc1Cl [321(R)]
Weeding effect in post-emergence stage, Abutilon theophrasti (Abutilon theophrasti; Dose 120 g/ha): 5 (Level 5: growth control rate is above 85%) | Weeding effect in post-emergence stage, Alopecurus japonicus (Alopecurus japonicus; Dose 120 g/ha): 5 (Level 5: growth control rate is above 85%) | Weeding effect in post-emergence stage, Digitaria sanguinalis (Digitaria sanguinalis; Dose 120 g/ha): 5 (Level 5: growth control rate is above 85%) | Weeding effect in post-emergence stage, Eleusine indica (Eleusine indica; Dose 120 g/ha): 5 (Level 5: growth control rate is above 85%) | Weeding effect in post-emergence stage, Setaria viridis (Setaria viridis; Dose 120 g/ha): 5 (Level 5: growth control rate is above 85%) | Weeding effect in post-emergence stage, Echinochloa crusgalli (Echinochloa crusgalli; Dose 120 g/ha): 5 (Level 5: growth control rate is above 85%)

COC(=O)C(C)O/N=C/c1cc(-n2c(=O)cc(C(F)(F)F)n(C)c2=S)c(F)cc1Cl (stereo not drawn) [Compound 347]
Weeding effect in post-emergence stage, Abutilon theophrasti (Abutilon theophrasti; Dose 30 g/ha): 5 (Level 5: growth control rate is above 85%) | Weeding effect in post-emergence stage, Alopecurus japonicus (Alopecurus japonicus; Dose 30 g/ha): 5 (Level 5: growth control rate is above 85%) | Weeding effect in post-emergence stage, Digitaria sanguinalis (Digitaria sanguinalis; Dose 30 g/ha): 5 (Level 5: growth control rate is above 85%) | Weeding effect in post-emergence stage, Eleusine indica (Eleusine indica; Dose 30 g/ha): 5 (Level 5: growth control rate is above 85%) | Weeding effect in post-emergence stage, Setaria viridis (Setaria viridis; Dose 30 g/ha): 5 (Level 5: growth control rate is above 85%) | Weeding effect in post-emergence stage, Echinochloa crusgalli (Echinochloa crusgalli; Dose 30 g/ha): 5 (Level 5: growth control rate is above 85%)
